# According to ChEMBL document CHEMBL3507680, “University of Dundee, Gates Library screen for HepG2 cell viability”:
# Experiment: Human HepG2 cell viability assay in 384 well format
# Assay type: toxicity, cell-based
# Design: dose 125 nL, time 70.5 hour; concentration not given beside the values
# Conditions: HepG2 cells, read-out: Inhibition
structure (smiles),measurement,value
CC(C)c1nnc2n1CCN(C(=O)CN1CCc3sccc3C1)C2,cytotoxicity at 70.5 h,-4.56%
O=C(NCC1CC1)C1CN(C(=O)c2cccc(Cl)c2)CC12CCOCC2 (stereo not given),cytotoxicity at 70.5 h,38.6%
Cc1noc(C(C)N2CCN(CCc3ccncc3)CC2)n1 (stereo not given),cytotoxicity at 70.5 h,-4.19%
CCc1noc(CCC(=O)N2CCC(c3ccn[nH]3)C2)n1 (stereo not given),cytotoxicity at 70.5 h,17.8%
Cc1cc(C)n(CC2CCCN2C(=O)CCc2nccs2)n1 (stereo not given),cytotoxicity at 70.5 h,-7.22%
Cc1noc(C)c1CN1CCC2(CC1)CC(Oc1cccnc1)CO2 (stereo not given),cytotoxicity at 70.5 h,1.43%
CC(C)N(C)Cc1cncc2c1CCN(Cc1cccs1)C2,cytotoxicity at 70.5 h,-3.46%
CCn1cc(NC(=O)C2CCN(Cc3noc(C4CC4)n3)CC2)cn1,cytotoxicity at 70.5 h,-8.03%
CC(C)C(=O)NC1CCN(CCO)CC1,cytotoxicity at 70.5 h,4.41%
CN(CC1(C)COC1)C(=O)c1cc(-c2cnn(C)c2)nc2ccccc12,cytotoxicity at 70.5 h,-6.09%
COc1cc(F)c(CN2CCN(CC(C)C)C(=O)C2C)cc1OC (stereo not given),cytotoxicity at 70.5 h,-1.44%
OCc1ccc(CN2CCC(n3cc(-c4ccsc4)nn3)CC2)o1,cytotoxicity at 70.5 h,-5.24%
CNCC(=O)N[C@H]1CN(c2nc(C)c3c(n2)CCCC3)C[C@@H]1C1CC1,cytotoxicity at 70.5 h,-11.2%
CCn1nc(C)c2nnn(CC(=O)Nc3cccc(F)c3)c(=O)c21,cytotoxicity at 70.5 h,-5.5%
CC(C)(C)CNC1(Cc2cc(C(C)(C)O)on2)COC1,cytotoxicity at 70.5 h,-7.44%
CCN1CCN(C2CCN(Cc3nnc(C(C)C)o3)CC2)C1=O,cytotoxicity at 70.5 h,-7.93%
Nc1ccc(-c2cc(O)cc(CCC3CCCCN3)c2)cn1 (stereo not given),cytotoxicity at 70.5 h,-5.09%
O=C1CCN(C(=O)C2(c3ccc(Br)cc3)CC2)CCN1,cytotoxicity at 70.5 h,1.42%
Cc1cc(=O)n(CCNS(=O)(=O)c2cccc(C(F)(F)F)c2)cn1,cytotoxicity at 70.5 h,-8.24%
O=C(C1CCOCC1)N1CC[C@H](O)[C@@H]1Cc1cccnc1,cytotoxicity at 70.5 h,-0.0587%
CN1CCN(C2CCN(CCOc3ccccc3F)CC2)C1=O,cytotoxicity at 70.5 h,-11.6%
CC(C(=O)N1CCc2ccccc2C1)n1cc(Br)cn1 (stereo not given),cytotoxicity at 70.5 h,-13.3%
CSCc1cc(F)ccc1CNCc1cccc(O)c1,cytotoxicity at 70.5 h,-5.38%
Clc1cccc(-n2cnnn2)c1N1CCOCC1,cytotoxicity at 70.5 h,-5.42%
COc1cc2cc(C(=O)N[C@@H](C)C(=O)O)n(C)c2c(OC)c1OC,cytotoxicity at 70.5 h,-4.88%
Cn1cc(Cl)c(C(=O)N2CCc3nc4sccc4c(=O)n3CC2)n1,cytotoxicity at 70.5 h,-2.51%
CCCc1noc(C2CCCCN2C(=O)CCc2cnn(C)c2)n1 (stereo not given),cytotoxicity at 70.5 h,-0.695%
Cn1nccc1-c1ccc2nc(C3CCNCC3)nn2c1,cytotoxicity at 70.5 h,10.5%
CCCS(=O)(=O)N1CCCC1c1cccc(N(C)C)c1 (stereo not given),cytotoxicity at 70.5 h,-11.2%
Cc1ccnc(N2CCN(C3CCS(=O)(=O)C3)CC2)n1 (stereo not given),cytotoxicity at 70.5 h,-13.6%
O=C1CC2(CCN(Cc3ccc(-c4ccn[nH]4)s3)CC2)CN1,cytotoxicity at 70.5 h,-13.8%
O=c1[nH]nc2c(S(=O)(=O)N3CCN(c4ccc(F)cc4)CC3)cccn12,cytotoxicity at 70.5 h,20.6%
c1coc(CN2CCC3(CC2)COCCN(CCN2CCCC2)C3)c1,cytotoxicity at 70.5 h,-0.522%
CCN1CC2(CCN(CCOCCO)CC2)CC(c2ccccc2)C1=O (stereo not given),cytotoxicity at 70.5 h,3.81%
CC(c1cccnc1)N(C)Cc1csc(-c2ccccn2)n1 (stereo not given),cytotoxicity at 70.5 h,8.67%
Cc1[nH]ccc1C(=O)N1CCCC(c2nccn2Cc2cscn2)C1 (stereo not given),cytotoxicity at 70.5 h,20.2%
CC(=O)c1cccc(NCC(=O)NC(N)=O)c1,cytotoxicity at 70.5 h,27.4%
CC(C)CN(Cc1nc2c(cnn2C)c(=O)[nH]1)CC(C)C,cytotoxicity at 70.5 h,-5.64%
CCC1CN(c2cnn(-c3ccccc3)c(=O)c2Cl)CCO1 (stereo not given),cytotoxicity at 70.5 h,-12.4%
Cc1cc(CN2CCN(CC3CC3)[C@@H]3CS(=O)(=O)C[C@@H]32)cc(C)c1O,cytotoxicity at 70.5 h,-2.43%
CCC[C@@H]1CN(Cc2ccccc2SC)C[C@H]1NC(C)=O,cytotoxicity at 70.5 h,-5.44%
Cc1cnc(C(=O)N2CC(=O)N(c3ccccc3Cl)CC2C)cn1 (stereo not given),cytotoxicity at 70.5 h,-6.52%
Nc1ncc(CN2C[C@H](C3CC3)[C@@H](N)C2)cn1,cytotoxicity at 70.5 h,-5.66%
CC(C)n1c2ccccc2c2c1cc(C(=O)N(C)C)n2C,cytotoxicity at 70.5 h,16.4%
Cc1n[nH]c(C)c1C1COCCN1C(=O)Cc1ccccc1F (stereo not given),cytotoxicity at 70.5 h,-0.503%
Cc1cc(C)c(CNC(=O)N2CCCC2c2ccc(F)cc2)c(=O)[nH]1 (stereo not given),cytotoxicity at 70.5 h,-6.72%
Cc1nc(C)n(CC2CN(CC(=O)Nc3nccs3)CCO2)n1 (stereo not given),cytotoxicity at 70.5 h,-3.11%
CCOCc1nc(N2CCOCC2)sc1C(=O)NCCCc1ccco1,cytotoxicity at 70.5 h,0.741%
O=C([C@@H]1CC[C@@H]2[C@@H](CCN2c2ccncn2)O1)N1CCCCO1,cytotoxicity at 70.5 h,-0.768%
O=C(OCc1cc(=O)n2cc(Br)ccc2n1)c1ccc2c(c1)OCO2,cytotoxicity at 70.5 h,-5.88%
Cc1noc(CCCNS(=O)(=O)N2CCCC2c2ccco2)n1 (stereo not given),cytotoxicity at 70.5 h,-9.07%
O=C(NCc1nccn1CCc1ccccc1)NCC1CCC1,cytotoxicity at 70.5 h,2.35%
Cc1cc(C(=O)NCC2Cn3nnc(C)c3CO2)no1 (stereo not given),cytotoxicity at 70.5 h,-7.19%
O=C1C(NCc2nnc3n2CCCC3)CCN1c1ccccc1Cl (stereo not given),cytotoxicity at 70.5 h,9.28%
CC(C)Oc1ccc(C(=O)Nc2nncs2)cn1,cytotoxicity at 70.5 h,5.43%
COCc1ncn2c1CN(C(=O)c1ccc[nH]1)CC2,cytotoxicity at 70.5 h,-4.65%
COc1cccc(C2SCC(=O)Nc3ccsc32)c1OC (stereo not given),cytotoxicity at 70.5 h,1.7%
CC(C(=O)NCc1cccc(N2CCCC2=O)c1)S(C)(=O)=O (stereo not given),cytotoxicity at 70.5 h,0.0426%
OCCN1CCC2(CC1)CC(NCc1ccccn1)c1ccccc1O2 (stereo not given),cytotoxicity at 70.5 h,-0.919%
COCCNC(=O)c1cc(OC)c2ccoc2c1,cytotoxicity at 70.5 h,-1.33%
Cc1noc(C)c1CN1C(=O)[C@H]2CC[C@@H]1CN(Cc1cscn1)C2,cytotoxicity at 70.5 h,-6.64%
COc1ccc(C(=O)N2CCCC2c2cnn(C)c2)cn1 (stereo not given),cytotoxicity at 70.5 h,9.21%
Cn1cccc1C(=O)N1CCC(c2nccn2Cc2ccncc2)CC1,cytotoxicity at 70.5 h,25.5%
CSc1nccc(NCC2CNCCOC2)n1 (stereo not given),cytotoxicity at 70.5 h,-11.3%
Cc1ccc2c(n1)N(C)CCN(CCN1CCCC1)C2,cytotoxicity at 70.5 h,4.19%
CCc1cnc(N)nc1N1CCN(C(C)=O)CC1,cytotoxicity at 70.5 h,-15.8%
CCc1cnc(N2CCCC(CCC(N)=O)C2)nc1 (stereo not given),cytotoxicity at 70.5 h,17.3%
O=C(NC1CCCC1)N1CC[C@H]2[C@H]1CCN2c1nncs1,cytotoxicity at 70.5 h,36.5%
CCN(C)C[C@@H]1CN(Cc2cccc(Cl)c2)C[C@@H]1CO,cytotoxicity at 70.5 h,-11.5%
COC(=O)C1CCN(C(=O)Cn2nc(C)nc2-c2ccccc2)CC1,cytotoxicity at 70.5 h,-2.98%
O=C(CNC(=O)C1CC1)NCC1CCCC1,cytotoxicity at 70.5 h,4.06%
COc1ccc(-c2csc3c2c(N)nc(=O)n3CCN(C)C)cc1,cytotoxicity at 70.5 h,-7.62%
O=C(Cn1ccc2ncccc2c1=O)N1CCSCC1,cytotoxicity at 70.5 h,29.2%
Cc1cc(C)n(C2CN(CC(=O)NC3CCOCC3)C2)n1,cytotoxicity at 70.5 h,-0.827%
CCN(CC)C(=O)CCNC(=O)N1CCC(c2ccccc2)C1 (stereo not given),cytotoxicity at 70.5 h,-6.27%
CNc1nc2c(c(C(=O)N3CCCC3)n1)CN(Cc1cc(C)no1)CC2,cytotoxicity at 70.5 h,10.8%
OCC1CCCN1c1cc(NCc2cccs2)ncn1 (stereo not given),cytotoxicity at 70.5 h,17.3%
Cc1ccccc1OCC(O)CN1CCC(c2ccn[nH]2)CC1 (stereo not given),cytotoxicity at 70.5 h,-4.42%
CC(=O)c1ccc(N2CCCC(CO)(Cc3ccccc3F)C2)nc1 (stereo not given),cytotoxicity at 70.5 h,20.4%
CC(C)c1nnc2sc(CC3CN(C(C)C)CCO3)nn12 (stereo not given),cytotoxicity at 70.5 h,-7.69%
Cc1ccc2c(c1)C(=O)NCC1(CCN(C(=O)c3sccc3C)CC1)O2,cytotoxicity at 70.5 h,-5.39%
CN(Cc1ccco1)Cc1cnc2n1CCN(S(C)(=O)=O)CC2,cytotoxicity at 70.5 h,26.4%
O=C(Cc1cccs1)NCC(=O)Nc1cn[nH]c1,cytotoxicity at 70.5 h,-11.9%
COc1cc2c(nn1)CCN(Cc1noc(-c3ccccc3)n1)C2,cytotoxicity at 70.5 h,2.93%
CN(C)C(=O)CC1CC2(CCN(CC3CC3)CC2)Oc2ccccc21 (stereo not given),cytotoxicity at 70.5 h,-3.69%
Cn1ccnc1-c1cccc(NC(=O)NCCN2CCOCC2)c1,cytotoxicity at 70.5 h,-3.53%
CC(C)Cc1nc(-c2ccnc(N3CCNCC3)n2)no1,cytotoxicity at 70.5 h,-7.21%
CC1=C(C(=O)N2CCOC(Cc3cccc(C(F)(F)F)c3)C2)OCCO1 (stereo not given),cytotoxicity at 70.5 h,-6.57%
CC(O)c1cn(C2CCN(C(=O)C3(C)CCCCC3)CC2)nn1 (stereo not given),cytotoxicity at 70.5 h,14.9%
CC(=O)N1CCCC1CCc1ccc(Cl)nn1 (stereo not given),cytotoxicity at 70.5 h,-2.45%
Cc1nn(C)c(C)c1C1CCCN1Cc1cccc(OCC(N)=O)c1 (stereo not given),cytotoxicity at 70.5 h,-7.47%
O=C(Nc1cc(CSCCO)ccn1)c1cc2ccccc2[nH]1,cytotoxicity at 70.5 h,13.4%
Cc1cc(NC(=O)CN2CCC(N3CCNC3=O)CC2)on1,cytotoxicity at 70.5 h,-5.65%
O=C(c1ccccc1)N1C[C@@H]2CCCO[C@@H]2[C@H](N2CCOCC2)C1,cytotoxicity at 70.5 h,1.03%
CC(=O)c1cc(C(=O)NC2(c3ccccc3)CCC2)n(C)c1,cytotoxicity at 70.5 h,-6.28%
Cn1cc(-c2nc(C3CCN(S(C)(=O)=O)CC3)cc3c2ncn3C)cn1,cytotoxicity at 70.5 h,23.5%
CC(C)(NCc1cccc(C(N)=O)c1)c1ccc2c(c1)OCO2,cytotoxicity at 70.5 h,-10%
Cc1ncc2c(n1)C1(CCN(C(=O)C(C)C)CC1)OCC2,cytotoxicity at 70.5 h,-6.13%
O=C(CC1COCCN1)NCCc1noc(-c2ccccc2)n1 (stereo not given),cytotoxicity at 70.5 h,-2.33%
CCCS(=O)(=O)N1CCCC(CCC(=O)N(C)CCc2ccccn2)C1 (stereo not given),cytotoxicity at 70.5 h,-0.331%
CC1CN(Cc2cccc(C#N)c2)CCN1c1ccc2nncn2n1 (stereo not given),cytotoxicity at 70.5 h,-5.84%
CC(NC(=O)c1cc2n(n1)CCCN(C)C2)c1cn2ncsc2n1 (stereo not given),cytotoxicity at 70.5 h,-7.44%
COc1ccccc1NC(=O)N1CCCC1c1ccco1 (stereo not given),cytotoxicity at 70.5 h,-0.874%
Cc1nnc(NC(=O)N2CCC(N3CCCCC3)CC2)s1,cytotoxicity at 70.5 h,-8.18%
O=C([C@@H]1CC[C@@H]2[C@@H](CCN2Cc2ccncc2)O1)N1CCCCO1,cytotoxicity at 70.5 h,-6.89%
CCOCC1CN(C(=O)N2CCCC2)Cc2cnn(C)c21 (stereo not given),cytotoxicity at 70.5 h,-6.47%
COC(C)c1cccc(NCc2ccsc2)c1 (stereo not given),cytotoxicity at 70.5 h,-2.9%
CCS(=O)(=O)Cc1nc(-c2cnn3c(C)cc(C)nc23)no1,cytotoxicity at 70.5 h,-116%
c1cnc(N2CCC3(CC2)CN(CC2CC2)c2ccccc23)nc1,cytotoxicity at 70.5 h,12.1%
COc1ncccc1NC(=O)C1CCS(=O)(=O)C1 (stereo not given),cytotoxicity at 70.5 h,-15.1%
Cc1occc1C(=O)N1CC(C(=O)N2CCOCC2)C2(CCOCC2)C1 (stereo not given),cytotoxicity at 70.5 h,6.2%
CC(C)N1CCN(C)CC(Cc2cc(N(C)C)ncn2)C1 (stereo not given),cytotoxicity at 70.5 h,-3.36%
COc1ccccc1CC1CCCN(CC(N)=O)C1 (stereo not given),cytotoxicity at 70.5 h,-2.63%
CN(C)C(=O)N1CCn2c(Cn3cccn3)cnc2C1,cytotoxicity at 70.5 h,1.93%
COc1ccc(Cl)cc1NCC(=O)N(Cc1ccccn1)C1CC1,cytotoxicity at 70.5 h,-4.9%
